Reference: PubChem BioAssay AID1645848
Converted amounts (≈) assume the structure as drawn.

Settings: buffer; pH 7.4; 6.0 h; 150.0 µM

Point of comparison: `CC(=O)N1CCc2c(sc3c2c(=O)n(-c2ccccc2Cl)c(=O)n3Cc2cccc(C)c2)C1`, solubility kinetic 2.16 µg/mL (≈ 4.5 µM). Against it:
- Cc1ccc(S(=O)(=O)Nc2cc(Cl)c(Cl)cc2C(=O)Nc2nc(-c3ccccc3)cs2)cc1 — lower, < 1 µg/mL
- O=[S+]([O-])(Nc1nccs1)c1ccc(NCc2cccc3c2NCC3)cc1 — higher, > 57 µg/mL
- CC1CCN(S(=O)(=O)c2ccc3c(ccc(=O)n3CC(=O)NCc3ccc(Cl)cc3)c2)CC1 — lower, < 1 µg/mL
- Cc1ccc(C)c(SC2=NS(=O)(=O)c3ccccc32)c1 — lower, < 1 µg/mL
- NC1CCN(c2nc(-c3ccc(Br)cc3)cs2)CC1 — 4.1-fold higher, 8.9 µg/mL (≈ 26.3 µM)
- Cc1cc(-c2nnc3n2CCCCC3)c(C)n1-c1ccncc1 — 17-fold higher, 36 µg/mL (≈ 117 µM)
- COc1ccc(CNC(=O)CCCn2nc(C)c3c(C)n(-c4ccc(C)cc4)nc3c2=O)cc1OC — higher, > 48 µg/mL
- Cc1ccnc(NC(=S)N2CCN(c3ccc(C(F)(F)F)cc3[N+](=O)[O-])CC2)c1 — 1.9-fold higher, 4.11 µg/mL (≈ 9.67 µM)
- COc1ccc(CCN2CCC(Nc3nc4ccccc4n3Cc3ccc(F)cc3)CC2)cc1 — 25-fold higher, 54.6 µg/mL (≈ 119 µM)
- Cc1nn(CC(=O)NCCCN2CCC(N3CCCCC3)CC2)c(=O)c2cc(-c3ccccc3)nn12 — higher, > 73 µg/mL
- CCCCn1cnc2cc(NCc3ccc(OCC)cc3)ccc21 — 4.7-fold higher, 10.1 µg/mL (≈ 31.2 µM)
- CC(=O)Nc1ccc(NC(=O)C(NS(=O)(=O)c2ccc(Br)s2)c2ccccc2)cc1 (centres undefined) — lower, < 1 µg/mL
- COc1cccc(S(=O)(=O)Nc2cnccc2C(=O)Nc2nc(-c3ccccc3)cs2)c1 — 25-fold higher, 53.9 µg/mL (≈ 116 µM)
- CC(C)c1ccc(OCc2nc3c(n2Cc2ccccc2)C(=O)N(CC2CC2)CCN3)cc1 — lower, < 1 µg/mL
- Cc1ccc(S(=O)(=O)Nc2ccccc2C(=O)Nc2ncc(-c3ccccc3)o2)cc1 — lower, < 1 µg/mL
- O=C(CCS(=O)(=O)c1nc(-c2cccs2)cc(C(F)(F)F)n1)Nc1ccc(OC(F)(F)F)cc1 — 5.3-fold higher, 11.5 µg/mL (≈ 21.8 µM)
- C=CC(=O)Nc1cccc(Oc2nc(Nc3ccc(N4CCN(C)CC4)cc3)ncc2Cl)c1 — lower, < 1 µg/mL
- Cc1cc(C)c(C(=O)Nc2cccc([S+](=O)([O-])N3CCCCCC3)c2)[nH]1 — lower, < 1 µg/mL
- O=S(=O)(Nc1ccc(-c2ccccc2)cc1)c1ccc(NCc2ccc(Br)cc2O)cc1 — lower, < 1 µg/mL
- Cc1nn(CCc2nc(-c3ccccc3)cs2)c2[nH]c(=O)cc(C(F)(F)F)c12 — 1.7-fold lower, 1.26 µg/mL (≈ 3.12 µM)
- O=C(O)c1ccnc2cc(C(OCCN3CCCCC3)c3ccccc3Cl)[nH]c12 (centres undefined) — higher, > 61 µg/mL
- O=C1Nc2ccccc2/C1=C\c1ccc(O)c(F)c1 — 4.3-fold higher, 9.29 µg/mL (≈ 36.4 µM)
- Cc1ccc(S(=O)(=O)Nc2cc(F)c(F)cc2C(=O)Nc2nc(-c3ccccc3)cs2)cc1 — lower, < 1 µg/mL
- Cc1ccc(C(=O)N2CCc3cc(-c4nc(NC(=O)Cc5ccc6c(c5)OCO6)sc4C)ccc32)cc1 — lower, < 1 µg/mL
- Oc1cccc(-c2nc(N3CCOCC3)c3oc4ncccc4c3n2)c1 — lower, < 1 µg/mL
- Cc1cc(NS(=O)(=O)c2ccc3c(c2)CCC(=O)N3)ccc1F — higher, > 49 µg/mL
- COc1cccc(CNc2ccc(S(=O)(=O)Nc3cccnc3)cc2)c1O — 1.8-fold higher, 3.93 µg/mL (≈ 10.2 µM)
- NC(=O)c1ccc(-c2ncc3cnc(-c4cccc(F)c4)cn23)cc1 — 5-fold higher, 10.9 µg/mL (≈ 32.8 µM)
- CCOC(=O)N1CCN(Cc2nc3cc(NC(=O)c4ccc(OC)cc4)ccc3n2C(C)C)CC1 — 6.8-fold higher, 14.7 µg/mL (≈ 30.7 µM)
- O=C(Nc1ccc2c(N3CCOCC3)ncnc2c1)c1cccc(Br)c1 — 4.4-fold higher, 9.48 µg/mL (≈ 22.9 µM)
- N=c1c2ccccc2nnn1-c1ccc(C(F)(F)F)cc1 — lower, < 1 µg/mL
- COC(=O)[C@H](Cc1ccc(O[S+](=O)([O-])c2cccc3cnccc23)cc1)N[S+](=O)([O-])c1ccc2cnccc2c1 — within 1.5-fold, 3.21 µg/mL (≈ 5.55 µM)
- COc1ccc(-c2nc3ncccc3[nH]2)cc1 — higher, > 67 µg/mL
- Cc1ccc(S(=O)(=O)Nc2ccccc2C(=O)Nc2nc(-c3ccccc3)c(Br)s2)cc1 — lower, < 1 µg/mL
- Cc1nn2c(c1-c1ccccc1Oc1ccccc1)N(Cc1ccccc1O)CCC2 — 6.4-fold higher, 13.9 µg/mL (≈ 33.8 µM)
- O=C(NCCc1ccc(OCC(F)(F)F)c(OCC(F)(F)F)c1)c1cc2sccc2n1Cc1ccccc1 — lower, < 1 µg/mL
- NC(=O)C1CCN(c2nc(-c3ccccc3F)cs2)CC1 — 2.2-fold higher, 4.65 µg/mL (≈ 15.2 µM)
- Fc1ccc(-c2csc3ncnc(NCc4ccc5c(c4)OCO5)c23)cc1 — 9.6-fold lower, 0.226 µg/mL (≈ 0.596 µM)
